Test results from PubChem BioAssay (NCI).
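The concentration for 50% growth inhibition is given as GI50. TGI: concentration producing complete growth inhibition.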

Columns and labels:
Assay in all cases: growth of human tumour cells (NCI), 384-well format
SK-MEL-28 melanoma = system: SK-MEL-28 melanoma
U251 glioblastoma = system: U251 glioblastoma
HCC-2998 colon = system: HCC-2998 colon
HL-60(TB) leukemia = system: HL-60(TB) leukemia
BT-549 breast = system: BT-549 breast
MDA-MB-231 breast = system: MDA-MB-231 breast
NCI-H322M lung = system: NCI-H322M lung
RXF 393 renal = system: RXF 393 renal
NCI-H522 lung = system: NCI-H522 lung
PC-3 prostate = system: PC-3 prostate
UACC-62 melanoma = system: UACC-62 melanoma
A549 NSCLC = system: A549 NSCLC
HOP-92 NSCLC = system: HOP-92 NSCLC
T-47D breast = system: T-47D breast
SF-295 CNS = system: SF-295 CNS
HOP-62 NSCLC = system: HOP-62 NSCLC
HCT-15 colon = system: HCT-15 colon
SN12C renal = system: SN12C renal
SNB-75 CNS = system: SNB-75 CNS
MCF7 breast = system: MCF7 breast
HCT-116 colon = system: HCT-116 colon
ACHN renal = system: ACHN renal
SF-539 CNS = system: SF-539 CNS
SK-OV-3 ovarian = system: SK-OV-3 ovarian
KM12 colon = system: KM12 colon
K-562 leukemia = system: K-562 leukemia
OVCAR-8 ovarian = system: OVCAR-8 ovarian
UACC-257 melanoma = system: UACC-257 melanoma
DU-145 prostate = system: DU-145 prostate

In the case of CC/C(=C(/c1ccc(/C=C/C(=O)O)cc1)c1ccc2[nH]ncc2c1)c1ccc(F)cc1Cl, the GI50 (SK-MEL-28 melanoma) is reported as 12.5 µM, the TGI (SK-MEL-28 melanoma) is reported as 26.1 µM and the GI50 (U251 glioblastoma) is reported as 11.8 µM. The TGI (U251 glioblastoma) was 24.2 µM, the GI50 (HCC-2998 colon) was 18.3 µM and the TGI (HCC-2998 colon) was 32.3 µM. It also gave a GI50 (HL-60(TB) leukemia) of 6.03 µM, a TGI (HL-60(TB) leukemia) of 18.5 µM and a GI50 (BT-549 breast) of 14.7 µM. The TGI (BT-549 breast) was 27.9 µM, the GI50 (MDA-MB-231 breast) was 15.1 µM and the TGI (MDA-MB-231 breast) was 28.4 µM. For the same molecule, the GI50 (NCI-H322M lung) was 14.2 µM, the TGI (NCI-H322M lung) was 27.4 µM and the GI50 (RXF 393 renal) was 8.35 µM. The TGI (RXF 393 renal) was 21 µM, the GI50 (NCI-H522 lung) was 14.6 µM and the TGI (NCI-H522 lung) was 27.8 µM. It also gave a GI50 (PC-3 prostate) of 13.7 µM, a TGI (PC-3 prostate) of 26.7 µM and a GI50 (UACC-62 melanoma) of 13 µM. For the same molecule, the TGI (UACC-62 melanoma) was 25.8 µM, the GI50 (A549 NSCLC) was 10.4 µM and the TGI (A549 NSCLC) was 22.3 µM. It also gave a GI50 (HOP-92 NSCLC) of 14.2 µM, a TGI (HOP-92 NSCLC) of 27.6 µM and a GI50 (T-47D breast) of 11.9 µM. It also gave a TGI (T-47D breast) of 25.2 µM, a GI50 (SF-295 CNS) of 4.65 µM and a TGI (SF-295 CNS) of 17 µM. It also gave a GI50 (HOP-62 NSCLC) of 9.36 µM, a TGI (HOP-62 NSCLC) of 21.4 µM and a GI50 (HCT-15 colon) of 12.4 µM. For the same molecule, the TGI (HCT-15 colon) was 25.2 µM, the GI50 (SN12C renal) was 17.1 µM and the TGI (SN12C renal) was 31.6 µM. It also gave a GI50 (SNB-75 CNS) of 13.7 µM, a TGI (SNB-75 CNS) of 26.6 µM and a TGI (MCF7 breast) of 15.1 µM. For the same molecule, the GI50 (HCT-116 colon) was 15.3 µM, the TGI (HCT-116 colon) was 29.4 µM and the GI50 (ACHN renal) was 13.7 µM. It also gave a TGI (ACHN renal) of 26.6 µM, a GI50 (SF-539 CNS) of 14.3 µM and a TGI (SF-539 CNS) of 27.4 µM. For the same molecule, the GI50 (SK-OV-3 ovarian) was 18 µM, the TGI (SK-OV-3 ovarian) was 32.5 µM and the GI50 (KM12 colon) was 14.4 µM. For the same molecule, the TGI (KM12 colon) was 27.5 µM, the GI50 (K-562 leukemia) was 14.5 µM and the TGI (K-562 leukemia) was 29.5 µM. The GI50 (OVCAR-8 ovarian) was 15.3 µM, the TGI (OVCAR-8 ovarian) was 28.7 µM and the GI50 (UACC-257 melanoma) was 15.1 µM. For the same molecule, the TGI (UACC-257 melanoma) was 29 µM, the GI50 (DU-145 prostate) was 15.9 µM and the TGI (DU-145 prostate) was 29.4 µM.
